This is an account of results in PubChem BioAssay AID330 (DTP/NCI, 2004).

In the test the test system is P388 leukemia ip, CD2F1 mice, survival T/C. Kind of test: NCI In Vivo Anticancer Drug Screen. Data for tumor model P388 Leukemia (intraperitoneal) in CD2F1 (CDF1) mice. The following applies: endpoint: median survival time, higher = longer survival. In outline:
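Mice carrying the transplanted tumor received test compound or vehicle. Survival was recorded in each group, and the value is the treated-group measurement divided by that of the vehicle-treated control group.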

[1] abbreviates: dose: 60.0 mg/kg/injection, schedule: Q01DX005 (ip), vehicle: saline with Tween-80.
Setting [2] is: dose: 120.0 mg/kg/injection, schedule: Q01DX005 (ip), vehicle: saline with Tween-80.
Setting [3] is: dose: 240.0 mg/kg/injection, schedule: Q01DX005 (ip), vehicle: saline with Tween-80.
Setting [4] is: dose: 50.0 mg/kg/injection, schedule: Q01DX005 (ip), vehicle: Klucel (hydroxypropylcellulose) (HPC).
The mark [5] stands for this setting: dose: 100.0 mg/kg/injection, schedule: Q01DX005 (ip), vehicle: Klucel (hydroxypropylcellulose) (HPC).
[6] abbreviates: dose: 200.0 mg/kg/injection, schedule: Q01DX005 (ip), vehicle: Klucel (hydroxypropylcellulose) (HPC).
[7] abbreviates: dose: 25.0 mg/kg/injection, schedule: Q01DX009 (ip), vehicle: saline with Tween-80.
[8] abbreviates: dose: 50.0 mg/kg/injection, schedule: Q01DX009 (ip), vehicle: saline with Tween-80.
The mark [9] stands for this setting: dose: 50.0 mg/kg/injection, schedule: Q01DX005 (ip), vehicle: saline with Tween-80.
Where [10] appears, read: dose: 100.0 mg/kg/injection, schedule: Q01DX005 (ip), vehicle: saline with Tween-80.
Where [11] appears, read: dose: 200.0 mg/kg/injection, schedule: Q01DX005 (ip), vehicle: saline with Tween-80.

Where “and” joins values, the source holds several entries; their conditions need not be identical. Equal entries are not always repeated. Inconclusive results and toxic doses are left out. Peptide text beside a SMILES is read from it. * marks the point of attachment. Cbz = O=C(OCc1ccccc1)*

Turning to `CCOC(=O)C(=O)Nc1sc(C)c(C)c1C#N`, the T/C (dose: 50.0 mg/kg/injection, schedule: Q01DX009 (ip), vehicle: saline + alcohol) is 90 % of control; the T/C (dose: 100.0 mg/kg/injection, schedule: Q01DX009 (ip), vehicle: saline + alcohol) was 98 % of control; the T/C (dose: 200.0 mg/kg/injection, schedule: Q01DX009 (ip), vehicle: saline + alcohol) is 105 % of control.
For `Cn1c2c(c3ccccc3c1=O)C(=O)c1cccnc1-2`, the T/C was 102 % of control (dose: 50.0 mg/kg/injection, schedule: Q01DX005 (ip), vehicle: saline); 97 % of control (dose: 100.0 mg/kg/injection, schedule: Q01DX005 (ip), vehicle: saline); 105 % of control (dose: 200.0 mg/kg/injection, schedule: Q01DX005 (ip), vehicle: saline).
`c1cc(Nc2ccc3c(c2)OCO3)c2cc(C3CCCCC3)ccc2n1`: the T/C was 97 % of control under setting [1], 98 % of control under setting [2] and 100 % of control under setting [3].
For `CCOC(=O)C(=CNc1cc(C)c2[nH]c3ccc(Br)cc3c2c1C)C(=O)OCC`, the T/C by setting is: under setting [1], 93 % of control; under setting [2], 93 % of control; under setting [3], 86 % of control and 93 % of control.
On to `CNC(=O)OCc1c(COC(=O)NC)c(-c2ccc(N)cc2)n(C)c1C`, for which the T/C reads like this: (dose: 6.25 mg/kg/injection, schedule: Q01DX009 (ip), vehicle: distilled water + Tween-80) 106 % of control and 92 % of control; (dose: 12.5 mg/kg/injection, schedule: Q01DX009 (ip), vehicle: distilled water + Tween-80) 119 % of control and 98 % of control; (dose: 25.0 mg/kg/injection, schedule: Q01DX009 (ip), vehicle: distilled water + Tween-80) 100 % of control and 123 % of control; (dose: 50.0 mg/kg/injection, schedule: Q01DX009 (ip), vehicle: distilled water + Tween-80) 119 % of control.
As for `CC1(C)N=C(N)N=C(N)N1c1ccc(OCC(=O)Nc2ccc(S(=O)(=O)F)cc2)c(Cl)c1`, the T/C (dose: 50.0 mg/kg/injection, schedule: Q04DX003 (ip), vehicle: saline) is 159 % of control; the T/C (dose: 100.0 mg/kg/injection, schedule: Q04DX003 (ip), vehicle: saline) was 163 % of control and 175 % of control; the T/C (dose: 200.0 mg/kg/injection, schedule: Q04DX003 (ip), vehicle: saline) is 177 % of control and 190 % of control; the T/C (dose: 400.0 mg/kg/injection, schedule: Q04DX003 (ip), vehicle: saline) is 115 % of control.
Take `O=C(O)c1cccc(-c2nn[nH]n2)c1`: the T/C is 93 % of control under setting [4], 90 % of control under setting [5] and 102 % of control under setting [6].
With `CC(C)=CCc1c2c(c(O)c3c(=O)c(-c4ccc(O)c(O)c4)coc13)C=CC(C)(C)O2`, the T/C by setting is: under setting [7], 99 % of control; under setting [8], 105 % of control; (dose: 100.0 mg/kg/injection, schedule: Q01DX009 (ip), vehicle: saline with Tween-80) 99 % of control; (dose: 200.0 mg/kg/injection, schedule: Q01DX009 (ip), vehicle: saline with Tween-80) 106 % of control.
With `O=C1C=CC(=O)C=C1` (tested in a mixture with another compound), the T/C was 100 % of control (dose: 1.0 mg/kg/injection, schedule: Q01DX009 (ip), vehicle: saline sonified); 109 % of control (dose: 2.0 mg/kg/injection, schedule: Q01DX009 (ip), vehicle: saline sonified); 100 % of control (dose: 3.0 mg/kg/injection, schedule: Q01DX009 (ip), vehicle: saline sonified); 100 % of control (dose: 6.0 mg/kg/injection, schedule: Q01DX009 (ip), vehicle: saline sonified).
Regarding `CC(=O)NCCSSCCCCSSCCNC(C)=O`, the T/C by setting is: under setting [4], 112 % of control; under setting [5], 112 % of control.
Take `O=C1C=C(Sc2ccc3ccccc3c2)C(=O)c2ccccc21`: the T/C is 101 % of control (dose: 3.13 mg/kg/injection, schedule: Q01DX009 (ip), vehicle: saline with Tween-80); 105 % of control (dose: 6.25 mg/kg/injection, schedule: Q01DX009 (ip), vehicle: saline with Tween-80); 104 % of control (dose: 12.5 mg/kg/injection, schedule: Q01DX009 (ip), vehicle: saline with Tween-80); 95 % of control under setting [7]; 104 % of control under setting [8].
Turning to `CCN1C(=O)C2C3C=CC(C2C1=O)C1C2C(=O)N(CC)C(=O)C2C31` (configuration not stated), the T/C was 99 % of control (dose: 100.0 mg/kg/injection, schedule: Q01DX001 (ip), vehicle: suspension in saline); 96 % of control (dose: 200.0 mg/kg/injection, schedule: Q01DX001 (ip), vehicle: suspension in saline); 100 % of control (dose: 400.0 mg/kg/injection, schedule: Q01DX001 (ip), vehicle: suspension in saline).
As to `COC(=O)[C@@]12OC[C@]34C([C@@H](O)C1O)[C@@]1(C)CC(=O)C(OS(=O)(=O)C(F)(F)F)=C(C)C1C[C@H]3OC(=O)[C@H](OC(=O)/C=C(\C)C(C)C)[C@H]42` (some centres not stated), the T/C was 101 % of control (dose: 0.25 mg/kg/injection, schedule: Q01DX005 (ip), vehicle: DMSO); 108 % of control (dose: 0.5 mg/kg/injection, schedule: Q01DX005 (ip), vehicle: DMSO); 109 % of control and 97 % of control (dose: 1.0 mg/kg/injection, schedule: Q01DX005 (ip), vehicle: DMSO); 107 % of control and 118 % of control (dose: 2.0 mg/kg/injection, schedule: Q01DX005 (ip), vehicle: DMSO); 107 % of control (dose: 4.0 mg/kg/injection, schedule: Q01DX005 (ip), vehicle: DMSO); 115 % of control (dose: 8.0 mg/kg/injection, schedule: Q01DX005 (ip), vehicle: DMSO).
For `COC(=O)C(CC(C)C)NC(=O)C(CO)NC(=O)OCc1ccccc1` (stereo not drawn) (Cbz-Ser-Leu-OMe; configuration not given here), the T/C by setting is: under setting [9], 100 % of control; under setting [10], 99 % of control; under setting [11], 100 % of control.
As for `CCOc1c(N=Nc2ccccc2)c(C)nn1C(=S)S`, the T/C (dose: 60.0 mg/kg/injection, schedule: Q01DX005 (ip), vehicle: Klucel + Tween-80) was 101 % of control; the T/C (dose: 120.0 mg/kg/injection, schedule: Q01DX005 (ip), vehicle: Klucel + Tween-80) was 101 % of control; the T/C (dose: 240.0 mg/kg/injection, schedule: Q01DX005 (ip), vehicle: Klucel + Tween-80) was 100 % of control.
For `Nc1nc(Cc2ccccc2)c(CCCNc2ccccc2)c(=O)[nH]1`, the T/C reads like this: (dose: 0.78 mg/kg/injection, schedule: Q01DX009 (ip), vehicle: saline) 100 % of control; (dose: 1.56 mg/kg/injection, schedule: Q01DX009 (ip), vehicle: saline) 100 % of control; (dose: 3.13 mg/kg/injection, schedule: Q01DX009 (ip), vehicle: saline) 102 % of control; (dose: 6.25 mg/kg/injection, schedule: Q01DX009 (ip), vehicle: saline) 100 % of control.
In the case of `C=CCCN1CC2CC(C1)N1CCCCC1C2=O` (configuration not stated), the T/C by setting is: (dose: 5.25 mg/kg/injection, schedule: Q01DX005 (ip), vehicle: Klucel (hydroxypropylcellulose) (HPC)) 102 % of control; (dose: 10.5 mg/kg/injection, schedule: Q01DX005 (ip), vehicle: Klucel (hydroxypropylcellulose) (HPC)) 103 % of control; (dose: 21.0 mg/kg/injection, schedule: Q01DX005 (ip), vehicle: Klucel (hydroxypropylcellulose) (HPC)) 100 % of control; (dose: 42.0 mg/kg/injection, schedule: Q01DX005 (ip), vehicle: Klucel (hydroxypropylcellulose) (HPC)) 103 % of control.
As to `O=C(CCl)N1c2ccccc2Sc2ccccc21`, the T/C is 105 % of control (dose: 12.5 mg/kg/injection, schedule: Q01DX009 (ip), vehicle: water); 100 % of control (dose: 25.0 mg/kg/injection, schedule: Q01DX009 (ip), vehicle: water); 107 % of control (dose: 50.0 mg/kg/injection, schedule: Q01DX009 (ip), vehicle: water); 111 % of control (dose: 100.0 mg/kg/injection, schedule: Q01DX009 (ip), vehicle: water); 114 % of control (dose: 200.0 mg/kg/injection, schedule: Q01DX009 (ip), vehicle: water).
With `CC1(C2(C)CC2(Br)Br)CC1(Br)Br` (configuration not stated), the T/C under setting [4] is 101 % of control, the T/C under setting [5] is 102 % of control and the T/C under setting [6] is 114 % of control.
In the case of `COC(=O)c1cc(=O)nc(N/N=C/c2cc(OC)ccc2OC)s1`, the T/C under setting [9] is 95 % of control, the T/C under setting [10] was 94 % of control and the T/C under setting [11] was 95 % of control.
